# According to patent publication US11040979B2, “Substituted pyrrolo[1,2-b]pyridazines for treating disorders related to KIT and PDGFR” (Blueprint Medicines Corporation, priority 2017, dated 2021):
# Key:
# Assay in all cases: Kinase profiling with recombinant enzyme, 33P-ATP filter-binding method
# Type in all cases: biochemical
# KIT V559D/T670I = KIT V559D/T670I (Homo sapiens (Human), UniProt P10721, T670I/V559D); details: c-KIT V559D/T670I, poly[Glu:Tyr] (4:1), ATP (Km) 5 uM; read-out: INH-KITV559D/T670I (exon 13) IC50
# Method: (§1) KIT, KIT mutant, and PDGFRα mutant kinase profiling was performed with recombinant enzymes including wild-type KIT, KIT V560G, KIT V559D/T670I, V559D/V654A, and PDGFRα D842V. Kinase/substrate pairs were prepared in reaction buffer (20 mM Hepes (pH 7.5), 10 mM MgCl2, 1 mM EGTA, 0.02% Brij35, 0.02 mg/ml BSA, 0.1 mM Na3VO4, 2 mM DTT, 1% DMSO). Compounds were dissolved at 10 mM in 100% DMSO, serial diluted and added to the kinase/substrate mix in final concentrations from 10 uM to 0.5 pM. Compounds were incubated with the recombinant enzymes and substrates at room temperature for 20 minutes with their respective Km for ATP. ^33P-ATP (10 mCi/mL) was added to initiate the reaction. Incubation for two hours at room temperature was followed by spotting onto P81 ion exchange paper and detection of kinase activity by a filter-binding method.
# (§2) Conditions for Specific Enzyme Assays:
# (§3) Data was normalized to 0% and 100% inhibition controls and the IC50 calculated using a 4-parameter curve fit.
# KIT V559D/V654A = KIT V559D/V654A (Homo sapiens (Human), UniProt P10721, V559D/V654A); details: c-KIT V559D/V654A, poly[Glu:Tyr] (4:1), ATP (Km) 20 uM; read-out: INH-KITV559D/V654A (exon 13) IC50
# Method: as §1, §2, §3
# KIT V560G = KIT V560G (Homo sapiens (Human), UniProt P10721, V560G); details: c-KIT V560G, poly[Glu:Tyr] (4:1), ATP (Km) 20 uM; read-out: INH-KITV560G (exon 11) IC50
# Method: as §1, §2, §3
# PDGFRα D842V = PDGFRα D842V (Homo sapiens (Human), UniProt P16234, D842V); details: poly[Glu:Tyr] (4:1), ATP (Km) 1 uM, read-out: INH-PDGFRα D842V (exon 18) IC50
# Method: as §1, §2, §3
# wild-type KIT = wild-type KIT (Homo sapiens (Human), UniProt P10721); details: c-KIT WT, poly[Glu:Tyr] (4:1), ATP (Km) 100 uM; read-out: INH-KITWT IC50
# Method: as §1, §2, §3
# Chain of KIT V559D/V654A (P10721 26-976 V559D/V654A): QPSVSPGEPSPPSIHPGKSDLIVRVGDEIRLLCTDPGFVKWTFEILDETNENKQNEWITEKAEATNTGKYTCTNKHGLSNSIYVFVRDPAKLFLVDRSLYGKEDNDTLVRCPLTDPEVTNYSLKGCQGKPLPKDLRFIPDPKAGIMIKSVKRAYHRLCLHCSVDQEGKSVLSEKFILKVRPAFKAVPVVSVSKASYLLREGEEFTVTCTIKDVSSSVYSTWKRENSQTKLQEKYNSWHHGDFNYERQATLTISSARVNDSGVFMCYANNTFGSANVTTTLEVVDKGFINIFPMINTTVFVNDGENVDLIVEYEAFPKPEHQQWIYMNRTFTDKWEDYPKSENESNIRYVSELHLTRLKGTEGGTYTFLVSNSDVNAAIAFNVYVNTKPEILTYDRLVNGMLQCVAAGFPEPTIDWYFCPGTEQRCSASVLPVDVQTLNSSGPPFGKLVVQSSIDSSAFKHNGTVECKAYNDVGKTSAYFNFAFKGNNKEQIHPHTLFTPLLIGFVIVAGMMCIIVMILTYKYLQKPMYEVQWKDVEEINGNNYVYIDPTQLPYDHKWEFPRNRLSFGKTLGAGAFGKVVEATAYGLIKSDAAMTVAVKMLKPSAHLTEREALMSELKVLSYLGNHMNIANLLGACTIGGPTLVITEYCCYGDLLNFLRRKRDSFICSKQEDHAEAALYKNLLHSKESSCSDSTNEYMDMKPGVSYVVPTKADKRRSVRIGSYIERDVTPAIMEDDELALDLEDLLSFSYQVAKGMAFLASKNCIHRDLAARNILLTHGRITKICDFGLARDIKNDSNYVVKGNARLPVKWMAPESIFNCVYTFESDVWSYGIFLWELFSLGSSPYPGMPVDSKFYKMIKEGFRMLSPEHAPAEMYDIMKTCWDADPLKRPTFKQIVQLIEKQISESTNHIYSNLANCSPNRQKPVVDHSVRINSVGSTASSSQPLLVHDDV
# Chain of wild-type KIT (P10721 26-976): as the sequence (P10721 26-976 V559D/V654A) above, with D534V, A629V counted along it
# Chain of KIT V560G (P10721 26-976 V560G): as the sequence (P10721 26-976 V559D/V654A) above, with D534V, V535G, A629V counted along it
# Chain of PDGFRα D842V (P16234 24-1089 D842V): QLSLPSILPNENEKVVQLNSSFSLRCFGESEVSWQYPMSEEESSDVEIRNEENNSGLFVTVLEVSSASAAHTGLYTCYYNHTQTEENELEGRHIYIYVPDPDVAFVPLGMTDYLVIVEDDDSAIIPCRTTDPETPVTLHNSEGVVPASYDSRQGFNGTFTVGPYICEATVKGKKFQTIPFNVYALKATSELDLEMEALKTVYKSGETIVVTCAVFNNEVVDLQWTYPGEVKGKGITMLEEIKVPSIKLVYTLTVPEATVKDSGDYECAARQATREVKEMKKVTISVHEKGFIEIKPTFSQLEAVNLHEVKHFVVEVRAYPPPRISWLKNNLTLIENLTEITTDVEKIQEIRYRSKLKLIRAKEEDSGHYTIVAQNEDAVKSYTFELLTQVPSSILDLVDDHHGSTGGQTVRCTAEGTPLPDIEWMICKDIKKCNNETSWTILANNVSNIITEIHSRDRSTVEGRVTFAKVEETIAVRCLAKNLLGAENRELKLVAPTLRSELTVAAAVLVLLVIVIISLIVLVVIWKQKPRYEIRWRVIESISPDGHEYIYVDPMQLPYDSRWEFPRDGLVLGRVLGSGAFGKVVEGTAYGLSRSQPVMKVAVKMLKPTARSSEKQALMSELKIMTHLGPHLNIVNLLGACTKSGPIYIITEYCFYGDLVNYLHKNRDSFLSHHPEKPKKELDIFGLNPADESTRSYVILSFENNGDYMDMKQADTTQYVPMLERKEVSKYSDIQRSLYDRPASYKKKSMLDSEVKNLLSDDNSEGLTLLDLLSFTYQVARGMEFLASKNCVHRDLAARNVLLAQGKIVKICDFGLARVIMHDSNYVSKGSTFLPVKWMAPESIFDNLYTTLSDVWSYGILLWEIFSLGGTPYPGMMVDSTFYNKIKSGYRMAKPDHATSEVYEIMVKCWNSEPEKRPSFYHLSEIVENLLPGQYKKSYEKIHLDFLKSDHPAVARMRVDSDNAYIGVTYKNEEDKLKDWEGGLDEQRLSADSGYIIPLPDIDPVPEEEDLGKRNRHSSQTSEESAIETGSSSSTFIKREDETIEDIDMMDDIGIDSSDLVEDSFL
# Chain of KIT V559D/T670I (P10721 26-976 V559D/T670I): as the sequence (P10721 26-976 V559D/V654A) above, with A629V, T645I counted along it
Compound,IC50 (KIT V559D/T670I) [nM],IC50 (KIT V559D/V654A) [nM],IC50 (KIT V560G) [nM],IC50 (PDGFRα D842V) [nM],IC50 (wild-type KIT) [nM]
"Cn1cc(-c2cc3c(N4CCN(c5ncc([C@@](C)(N)c6ccc(F)cc6)cn5)CC4)c(C#N)cnn3c2)cn1 [Compound 4, (S)-4-(4-(5-(1-amino-1-(4-fluorophenyl)ethyl)pyrimidin-2-yl)piperazin-1-yl)-6-(1-methyl-1H-pyrazol-4-yl)pyrrolo[1,2-b]pyridazine-3-carbonitrile]",1.01 to 10,10 to 100,1.01 to 10,< 1,> 100
"Cn1cc(-c2cc3c(N4CCN(c5ncc([C@@](C)(N)c6ccc(F)cc6)cn5)CC4)ccnn3c2)cn1 [Compound 1, (S)-1-(4-fluorophenyl)-1-(2-(4-(6-(1-methyl-1H-pyrazol-4-yl)pyrrolo[1,2-b]pyridazin-4-yl)piperazin-1-yl)pyrimidin-5-yl)ethanamine]",1.01 to 10,1.01 to 10,1.01 to 10,< 1,> 100
"Cn1cc(-c2cc3c(N4CCN(c5ncc([C@@](C)(N)c6ccc(F)cc6)cn5)CC4)c(Cl)cnn3c2)cn1 [Compound 3, (S)-1-(2-(4-(3-chloro-6-(1-methyl-1H-pyrazol-4-yl)pyrrolo[1,2-b]pyridazin-4-yl)piperazin-1-yl)pyrimidin-5-yl)-1-(4-fluorophenyl)ethanamine]",1.01 to 10,> 100,10 to 100,< 1,> 100
"Cn1cc(-c2cc3c(N4CCN(c5ncc([C@@](C)(N)c6ccc(F)cc6)cn5)CC4)c(F)cnn3c2)cn1 [Compound 2, (S)-1-(2-(4-(3-fluoro-6-(1-methyl-11H-pyrazol-4-yl)pyrrolo[1,2-b]pyridazin-4-yl)piperazin-1-yl)pyrimidin-5-yl)-1-(4-fluorophenyl)ethanamine]",1.01 to 10,10 to 100,10 to 100,< 1,> 100
